Values after ≈ are worked out from the molar mass of the structure shown. Where two headings read alike, the source gives them in different places.
How the values were obtained:
Assay in all cases: Agar dilution assay
Assay type in all cases: cell-based
Ca. stellatoidea MY1017 = conditions: Candida albicans, MY1017, 48 h, read-out: Minimum inhibitory concentration
From the text: (§1) For the agar dilution assay, the test panel consisted of 18 yeastlike and 3 Filamentus fungii. Four media were used. These were yeast nitrogen base dextrose (0.5% agar) (YNBDA); pH 5.5; YNBDA with pH adjusted to pH 7.5; and micrological agar (MA), pH 7.0; and Sabouraud dextrose agar, pH 5.7. The media was manufactured by Difco (Detroit, MI) and prepared according to the manufacturer's instructions.
(§2) The test compounds were solubilized in 10% aqueous DMSO; the control drug, Nystatin, was solublized in 10% aqueous DMF. The drugs were serially diluted twofold in sterile water to yield concentrations of 1.28 mg/ml to […]. One ml of diluted drug was added to 9 ml of cooled (50° C.) molten agar in plastic petri plates to yield final drug concentrations in the agar ranging from 128 to 0.063 ug/ml. Appropriate solvent and media control plates were prepared as well, and all plates stored in the dark at 4° C. overnight. The yeast cultures, maintained in yeast maltose (YM; Difco), were transferred to fresh YM medium and incubating overnight at 37° C. with shaking at 250 rpm. After incubation each culture was diluted in sterile saline to yield concentrations of 3×10^5 to 3×10^6 cfu/ml. Isolates of aspergillis and penicillium were made on potato dextrose agar slants, and spore suspensions were made following vigorous shaking with sterile glass beads. The spore preparation were used as inocula for these fungi.
(§3) Each prepared place was inoculated with the 21-member panel using a Denleigh multipoint inoculator (Sussex, England). The inoculator delivers approximately 1 ul to the agar surface, resulting in inoculation of from 3×10^2 to 3×10^3 cfu. The plates were incubated at 28° C. for 48 h, and the minimum inhibitory concentrations (MIC) of each drug were recorded as the lower concentration of the drug permitting no growth or growth of less than 3 cfu/spot.

[1] = tested on: Aspergillus fumigatus MY4839; conditions: MY4839, 48 h
From the text: as §1, §2, §3

Ca. albicans MY1013 = conditions: Candida albicans, MY1013, 48 h, read-out: Minimum inhibitory concentration
From the text: as §1, §2, §3

[2] = tested on: Penicillium italicum MF2819; conditions: MF2819, 48 h
From the text: as §1, §2, §3

Ca. albicans MY0992 = conditions: Candida albicans, MY0992, 48 h, read-out: Minimum inhibitory concentration
From the text: as §1, §2, §3

Ca. parapsilosis MY1010 = conditions: Lodderomyces parapsilosis, MY1010, 48 h, read-out: Minimum inhibitory concentration
From the text: as §1, §2, §3

A. flavus MF0383 = conditions: Aspergillus flavus, MF0383, 48 h, read-out: Minimum inhibitory concentration
From the text: as §1, §2, §3

[3] = tested on: Cryptococcus neoformans MY1051; conditions: MY1051, 48 h
From the text: as §1, §2, §3

Ca. rugosa MY1022 = conditions: Diutina rugosa, MY1022, 48 h, read-out: Minimum inhibitory concentration
From the text: as §1, §2, §3

Candida albicans MY1058 = conditions: MY1058, 48 h
From the text: as §1, §2, §3

[4] = tested on: Ca. guilliermondii MY1019; conditions: Meyerozyma guilliermondii, MY1019, 48 h, read-out: Minimum inhibitory concentration
From the text: as §1, §2, §3

Sac. cerevisiae MY1027 = conditions: Saccharomyces cerevisiae, MY1027, 48 h, read-out: Minimum inhibitory concentration
From the text: as §1, §2, §3

Ca. albicans MY1055 = conditions: Candida albicans, MY1055, 48 h, read-out: Minimum inhibitory concentration
From the text: as §1, §2, §3

[5] = tested on: Torulopsis glabrata MY1059; conditions: Nakaseomyces glabratus, MY1059, 48 h, read-out: Minimum inhibitory concentration
From the text: as §1, §2, §3

[6] = MA pH 7.0, read-out: Minimum inhibitory concentration
[7] = SDA pH 5.7, read-out: Minimum inhibitory concentration
[8] = YNBDA pH 5.5, read-out: Minimum inhibitory concentration
[9] = YNBDA pH 7.5, read-out: Minimum inhibitory concentration

How did the MIC (Ca. stellatoidea MY1017; MA pH 7.0) turn out when `CCCCCCCCc1ccc2nc(N)nc(N)c2c1C` [2,4-Diamino-5-methyl-6-n-octylquinazoline] was run?
Its MIC is 16 µg/mL (≈ 55.9 µM).

And the MIC (Ca. stellatoidea MY1017; SDA pH 5.7)?
Its MIC is 128 µg/mL (≈ 447 µM).

What about the MIC (Ca. stellatoidea MY1017; YNBDA pH 5.5) of the same compound?
The MIC was greater than 128 µg/mL.

And the MIC (Ca. stellatoidea MY1017; YNBDA pH 7.5)?
Its MIC is 16 µg/mL (≈ 55.9 µM).

And the MIC [1, 6]?
Its MIC is 64 µg/mL (≈ 223 µM).

What about the MIC [1, 7] of the same compound?
Its MIC is greater than 128 µg/mL.

And the MIC [1, 8]?
The MIC was greater than 128 µg/mL.

And the MIC [1, 9]?
The MIC was 32 µg/mL (≈ 112 µM).

What about the MIC (Ca. albicans MY1013; MA pH 7.0) of the same compound?
Its MIC is 16 µg/mL (≈ 55.9 µM).

And the MIC (Ca. albicans MY1013; SDA pH 5.7)?
The MIC was 128 µg/mL (≈ 447 µM).

What about the MIC (Ca. albicans MY1013; YNBDA pH 5.5) of the same compound?
Its MIC is greater than 128 µg/mL.

And the MIC (Ca. albicans MY1013; YNBDA pH 7.5)?
Its MIC is 16 µg/mL (≈ 55.9 µM).

And the MIC [2, 6]?
The MIC was 4 µg/mL (≈ 14 µM).

And the MIC [2, 7]?
The MIC was 64 µg/mL (≈ 223 µM).

What about the MIC [2, 8] of the same compound?
The MIC was 128 µg/mL (≈ 447 µM).

What about the MIC [2, 9] of the same compound?
Its MIC is 8 µg/mL (≈ 27.9 µM).

And the MIC (Ca. albicans MY0992; MA pH 7.0)?
The MIC was 16 µg/mL (≈ 55.9 µM).

And the MIC (Ca. albicans MY0992; SDA pH 5.7)?
The MIC was greater than 128 µg/mL.

And the MIC (Ca. albicans MY0992; YNBDA pH 5.5)?
Its MIC is greater than 128 µg/mL.

And the MIC (Ca. albicans MY0992; YNBDA pH 7.5)?
Its MIC is 16 µg/mL (≈ 55.9 µM).

What about the MIC (Ca. parapsilosis MY1010; MA pH 7.0) of the same compound?
The MIC was 4 µg/mL (≈ 14 µM).

And the MIC (Ca. parapsilosis MY1010; SDA pH 5.7)?
Its MIC is greater than 128 µg/mL.

What about the MIC (Ca. parapsilosis MY1010; YNBDA pH 5.5) of the same compound?
Its MIC is greater than 128 µg/mL.

What about the MIC (Ca. parapsilosis MY1010; YNBDA pH 7.5) of the same compound?
The MIC was 8 µg/mL (≈ 27.9 µM).

What about the MIC (A. flavus MF0383; MA pH 7.0) of the same compound?
The MIC was 64 µg/mL (≈ 223 µM).

What about the MIC (A. flavus MF0383; SDA pH 5.7) of the same compound?
Its MIC is greater than 128 µg/mL.

And the MIC (A. flavus MF0383; YNBDA pH 5.5)?
The MIC was greater than 128 µg/mL.

And the MIC (A. flavus MF0383; YNBDA pH 7.5)?
The MIC was 16 µg/mL (≈ 55.9 µM).

And the MIC [3, 6]?
Its MIC is 4 µg/mL (≈ 14 µM).

And the MIC [3, 7]?
The MIC was 16 µg/mL (≈ 55.9 µM).

What about the MIC [3, 8] of the same compound?
The MIC was 128 µg/mL (≈ 447 µM).

And the MIC [3, 9]?
Its MIC is 8 µg/mL (≈ 27.9 µM).

And the MIC (Ca. rugosa MY1022; pH 5.5, YNBDA pH 5.5)?
Its MIC is greater than 128 µg/mL.

And the MIC (Ca. rugosa MY1022; pH 7, MA pH 7.0)?
Its MIC is 64 µg/mL (≈ 223 µM).

What about the MIC (Ca. rugosa MY1022; pH 7.5, YNBDA pH 7.5) of the same compound?
Its MIC is 32 µg/mL (≈ 112 µM).

And the MIC (Candida albicans MY1058; [6])?
Its MIC is 16 µg/mL (≈ 55.9 µM).

What about the MIC (Candida albicans MY1058; [7]) of the same compound?
The MIC was greater than 128 µg/mL.

And the MIC (Candida albicans MY1058; [8])?
The MIC was greater than 128 µg/mL.

And the MIC (Candida albicans MY1058; [9])?
Its MIC is 32 µg/mL (≈ 112 µM).

What about the MIC ([4]; MA pH 7.0) of the same compound?
The MIC was 16 µg/mL (≈ 55.9 µM).

And the MIC ([4]; SDA pH 5.7)?
Its MIC is greater than 128 µg/mL.

And the MIC ([4]; YNBDA pH 5.5)?
The MIC was greater than 128 µg/mL.

What about the MIC ([4]; YNBDA pH 7.5) of the same compound?
Its MIC is 16 µg/mL (≈ 55.9 µM).

And the MIC (Sac. cerevisiae MY1027; MA pH 7.0)?
Its MIC is 4 µg/mL (≈ 14 µM).

What about the MIC (Sac. cerevisiae MY1027; SDA pH 5.7) of the same compound?
Its MIC is 128 µg/mL (≈ 447 µM).

And the MIC (Sac. cerevisiae MY1027; YNBDA pH 5.5)?
The MIC was greater than 128 µg/mL.

And the MIC (Sac. cerevisiae MY1027; YNBDA pH 7.5)?
The MIC was 4 µg/mL (≈ 14 µM).

And the MIC (Ca. albicans MY1055; MA pH 7.0)?
Its MIC is 32 µg/mL (≈ 112 µM).

What about the MIC (Ca. albicans MY1055; SDA pH 5.7) of the same compound?
The MIC was greater than 128 µg/mL.

What about the MIC (Ca. albicans MY1055; YNBDA pH 5.5) of the same compound?
The MIC was greater than 128 µg/mL.

What about the MIC (Ca. albicans MY1055; YNBDA pH 7.5) of the same compound?
Its MIC is 32 µg/mL (≈ 112 µM).

And the MIC ([5]; MA pH 7.0)?
Its MIC is 16 µg/mL (≈ 55.9 µM).

And the MIC ([5]; SDA pH 5.7)?
Its MIC is greater than 128 µg/mL.

What about the MIC ([5]; YNBDA pH 5.5) of the same compound?
Its MIC is greater than 128 µg/mL.

And the MIC ([5]; YNBDA pH 7.5)?
The MIC was 8 µg/mL (≈ 27.9 µM).

Source: patent US4818753A, “Synthesis and method of use for 2, 4 diaminoquinazoline” (SRI International, priority 1987, dated 1989)
